The values that follow come from article PMC10746112, “Synthesis and Pro-Apoptotic Effects of Nitrovinylanthracenes and Related Compounds in Chronic Lymphocytic Leukaemia (CLL) and Burkitt’s Lymphoma (BL)” (Molecules, 2023).

In one data set the test system is HG-3 CLL cells. Briefly: Inhibitor studies (NAC, Z-VAD-FMK), Annexin V/PI FACS. The settings on record: 48 h. The data set is classed as cell-based. The protocol: (§1) Additional annexin V/PI FACS analysis was carried out in the presence of a reactive oxygen species (ROS) inhibitor (N-acetylcysteine) and a pan-caspase inhibitor (Z-VAD-FMK) in order to study their effects (if any) on the pro-apoptotic effects of 11h (Figure 6). […] Similar results were obtained in the HG-3 cell line at 2.5 µM (90% to 31%) and 5 µM of 11h (84% to 51%). In the presence of the caspase inhibitor Z-VAD-FMK ([…]), the apoptosis induced by compound 11h decreased from 63% to 25% at 2.5 µM and from 79% to 43% at 5 µM in the PGA1 cell line. Similar results were obtained in the HG-3 cell line at 2.5 µM (84% to 29%) and 5 µM (74% to 50%). These findings indicate that both caspases and ROS may be involved in the mechanism of apoptosis for compound 11h.
(§2) The HG-3 and PGA-1 CLL cells (5 × 10^4 cells/mL) were pre-treated at 37 °C with either 5 mM N-acetylcysteine (NAC) for 1 h or 40 μM caspase inhibitor (Z-VAD-FMK; MBL International, Co., Woburn, MA, USA) for 4 h prior to treatment with (11 h at 5 μM) for 48 h. Annexin V/PI FACS analysis was then carried out as described above in Section 4.5.

The test system of a further data set is PGA-1 CLL cells. The data set is described as above. The class given is cell-based. The following applies: 48 h. The protocol: as §1, §2
Another data set has as its system MUTU-1 cells. More on the design: method as in earlier work. The settings on record: nitrostyrenes and taxol, MTT assay, reported data; cited from earlier work.
The subject of a further data set is DG-75 cells. Set-up: method as in earlier work. The settings on record: nitrostyrenes and taxol, MTT assay, reported data; cited from earlier work.
Data set [1] deals with DG-75 Burkitt’s lymphoma cell line. The settings on record: nitrostyrenes, 1 µM, 48 h; cited from earlier work.

Turning to `C/C(=C\c1cccc(Cl)c1)[N+](=O)[O-]` [Compound 11h], the apoptosis in the data set with HG-3 CLL cells (HG-3, 2.5 µM compound, in the presence of NAC) was found to be 31%; in the data set with HG-3 CLL cells (HG-3, 2.5 µM compound, in the presence of Z-VAD-FMK), 29%; in the data set with HG-3 CLL cells (HG-3, 2.5 µM compound, without NAC), 90%; with HG-3 CLL cells (HG-3, 2.5 µM compound, without Z-VAD-FMK), 84%; in the data set on HG-3 CLL cells (HG-3, 5 µM compound, in the presence of NAC), 51%; in the data set on HG-3 CLL cells (HG-3, 5 µM compound, in the presence of Z-VAD-FMK) it was 50%. The apoptosis with HG-3 CLL cells (HG-3, 5 µM compound, without NAC) stood at 84%; in the data set with HG-3 CLL cells (HG-3, 5 µM compound, without Z-VAD-FMK), 74%; in the data set with PGA-1 CLL cells (PGA1, 2.5 µM compound, in the presence of NAC), 21%; in the data set on PGA-1 CLL cells (PGA1, 2.5 µM compound, in the presence of Z-VAD-FMK) it was 25%; in the data set on PGA-1 CLL cells (PGA1, 2.5 µM compound, without NAC) it was 68%; in the data set on PGA-1 CLL cells (PGA1, 2.5 µM compound, without Z-VAD-FMK), 63%. In addition, the apoptosis in the data set with PGA-1 CLL cells (PGA1, 5 µM compound, in the presence of NAC) is 33%; in the data set on PGA-1 CLL cells (PGA1, 5 µM compound, in the presence of Z-VAD-FMK), 43%; in the data set on PGA-1 CLL cells (PGA1, 5 µM compound, without NAC) it was 88%; in the data set on PGA-1 CLL cells (PGA1, 5 µM compound, without Z-VAD-FMK), 79%. Besides, the IC50 with MUTU-1 cells is 0.88 µM; with DG-75 cells it was 2.25 µM. Moreover, the “% Viable Cells Remaining DG-75 48 h 1 µM” value in data set [1] is 84.50%.
